For one assay, the target named is HDAC1 (Homo sapiens (Human), UniProt Q13547). The following applies: read-out: HDAC1 IC50.
Another assay has as its target HDAC8 (Homo sapiens (Human), UniProt Q9BY41). The following applies: read-out: HDAC8 IC50.

SMILES strings stand for the structures.

HDAC1, sequence (Q13547 whole entry): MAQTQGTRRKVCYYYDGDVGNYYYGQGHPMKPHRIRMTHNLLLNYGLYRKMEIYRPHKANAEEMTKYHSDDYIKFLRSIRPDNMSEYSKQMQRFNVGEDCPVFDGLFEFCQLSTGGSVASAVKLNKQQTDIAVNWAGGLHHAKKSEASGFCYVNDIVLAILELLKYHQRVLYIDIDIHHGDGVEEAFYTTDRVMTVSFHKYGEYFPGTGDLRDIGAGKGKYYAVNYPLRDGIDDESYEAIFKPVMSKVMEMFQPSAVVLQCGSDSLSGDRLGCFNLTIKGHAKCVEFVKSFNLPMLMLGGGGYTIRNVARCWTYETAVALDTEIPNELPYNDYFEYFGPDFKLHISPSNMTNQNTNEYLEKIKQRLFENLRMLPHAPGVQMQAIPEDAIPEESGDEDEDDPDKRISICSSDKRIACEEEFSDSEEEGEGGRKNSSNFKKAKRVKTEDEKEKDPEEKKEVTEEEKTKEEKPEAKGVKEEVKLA
HDAC8, sequence (Q9BY41 whole entry): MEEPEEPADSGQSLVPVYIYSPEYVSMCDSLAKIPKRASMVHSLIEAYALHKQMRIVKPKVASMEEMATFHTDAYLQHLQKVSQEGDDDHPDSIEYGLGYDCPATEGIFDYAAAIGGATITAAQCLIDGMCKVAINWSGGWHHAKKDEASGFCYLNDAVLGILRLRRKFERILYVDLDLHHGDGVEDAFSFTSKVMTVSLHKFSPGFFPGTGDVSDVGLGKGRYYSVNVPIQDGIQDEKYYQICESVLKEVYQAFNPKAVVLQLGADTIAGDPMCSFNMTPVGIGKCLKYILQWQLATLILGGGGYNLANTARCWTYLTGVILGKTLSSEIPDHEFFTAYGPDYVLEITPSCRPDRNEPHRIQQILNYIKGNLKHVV

For `Cn1nccc1CCOc1cc(-c2noc(C(F)(F)F)n2)ccn1` [Example 387, 2-[2-(1-methyl-1H-pyrazol-5-yl)ethoxy]-4-[5-(trifluoromethyl)-1,2,4-oxadiazol-3-yl]pyridine], the IC50 at HDAC1 came out at 3.1 µM; at HDAC8 it was 0.88 µM.
With `O=c1ccc2ccc(C(F)(F)F)cc2n1Cc1ccc(-c2noc(C(F)(F)F)n2)cn1` [Example 388, 7-(trifluoromethyl)-1-({5-[5-(trifluoromethyl)-1,2,4-oxadiazol-3-yl]pyridin-2-yl}methyl)quinolin-2(1H)-one], the IC50 at HDAC1 amounted to 0.28 µM; at HDAC8 it was 4.9 µM.
For `CC(C)(C(=O)N(Cc1ccc(-c2noc(C(F)(F)F)n2)cn1)c1cccc(F)c1)n1cccn1` [Example 391, N-(3-fluorophenyl)-2-methyl-2-(1H-pyrazol-1-yl)-N-({5-[5-(trifluoromethyl)-1,2,4-oxadiazol-3-yl]pyridin-2-yl}methyl)propanamide], the IC50 worked out at 1.4 µM on HDAC1 and 7.4 µM at HDAC8.
The corresponding values for `CC(C)(C(=O)N(Cc1ccc(-c2noc(C(F)(F)F)n2)cn1)c1cccc(F)c1)n1cncn1` [Example 392, N-(3-fluorophenyl)-2-methyl-2-(1H-1,2,4-triazol-1-yl)-N-({5-[5-(trifluoromethyl)-1,2,4-oxadiazol-3-yl]pyridin-2-yl}methyl)propanamide] are 0.48 µM and 3.1 µM.
In the same order, the values of `Cc1n[nH]c(CC(=O)N(Cc2ccc(-c3noc(C(F)(F)F)n3)cn2)c2cccc(F)c2)n1` [Example 393, N-(3-fluorophenyl)-2-(3-methyl-1H-1,2,4-triazol-5-yl)-N-({5-[5-(trifluoromethyl)-1,2,4-oxadiazol-3-yl]pyridin-2-yl}methyl)acetamide] are 0.41 µM and 3.4 µM.
Take `Cc1ncc(CC(=O)N(Cc2ccc(-c3noc(C(F)(F)F)n3)cn2)c2cccc(F)c2)s1` [Example 394, N-(3-fluorophenyl)-2-(2-methyl-1,3-thiazol-5-yl)-N-({5-[5-(trifluoromethyl)-1,2,4-oxadiazol-3-yl]pyridin-2-yl}methyl)acetamide]: the concentration for half-maximal inhibition (IC50) at HDAC1 turned out to be 0.73 µM; on HDAC8, 2.4 µM.
In the case of `Cc1nnc(CC(=O)N(Cc2ccc(-c3noc(C(F)(F)F)n3)cn2)c2cccc(F)c2)s1` [Example 395, N-(3-fluorophenyl)-2-(5-methyl-1,3,4-thiadiazol-2-yl)-N-({5-[5-(trifluoromethyl)-1,2,4-oxadiazol-3-yl]pyridin-2-yl}methyl)acetamide], the IC50 at HDAC1 stood at 0.33 µM; on HDAC8, 1.3 µM.
In the case of `Cc1noc(CC(=O)N(Cc2ccc(-c3noc(C(F)(F)F)n3)cn2)c2cccc(F)c2)n1` [Example 396, N-(3-fluorophenyl)-2-(3-methyl-1,2,4-oxadiazol-5-yl)-N-({5-[5-(trifluoromethyl)-1,2,4-oxadiazol-3-yl]pyridin-2-yl}methyl)acetamide], the IC50 came out at 0.38 µM at HDAC1 and 1 µM at HDAC8.
In the same order, the values of `O=C(Cc1[nH]nc2ccccc12)N(Cc1ccc(-c2noc(C(F)(F)F)n2)cn1)c1cccc(F)c1` [Example 397, N-(3-fluorophenyl)-2-(2H-indazol-3-yl)-N-({5-[5-(trifluoromethyl)-1,2,4-oxadiazol-3-yl]pyridin-2-yl}methyl)acetamide] are 0.42 µM and 1.1 µM.
For the compound `CC(C)c1ncncc1C(=O)N(Cc1ccc(-c2noc(C(F)(F)F)n2)cn1)c1cccc(F)c1` [Example 399, N-(3-fluorophenyl)-4-(1-methylethyl)-N-({5-[5-(trifluoromethyl)-1,2,4-oxadiazol-3-yl]pyridin-2-yl}methyl)pyrimidine-5-carboxamide], the IC50 on HDAC1 turned out to be 0.93 µM; on HDAC8, 3.1 µM.
With `Cc1ccc(C(=O)N(Cc2ccc(-c3noc(C(F)(F)F)n3)cn2)c2cccc(F)c2)nn1` [Example 400, N-(3-fluorophenyl)-6-methyl-N-({5-[5-(trifluoromethyl)-1,2,4-oxadiazol-3-yl]pyridin-2-yl}methyl)pyridazine-3-carboxamide], the IC50 on HDAC1 was found to be 0.26 µM; on HDAC8, 3.2 µM.
As for `Cc1ncc(C(=O)N(Cc2ccc(-c3noc(C(F)(F)F)n3)cn2)c2cccc(F)c2)cn1` [Example 401, N-(3-fluorophenyl)-2-methyl-N-({5-[5-(trifluoromethyl)-1,2,4-oxadiazol-3-yl]pyridin-2-yl}methyl)pyrimidine-5-carboxamide], the IC50 at HDAC1 was determined as 0.29 µM; on HDAC8, 3.3 µM.
The corresponding values for `CS(=O)(=O)N1CC(C(=O)N(Cc2ccc(-c3noc(C(F)(F)F)n3)cn2)c2cccc(F)c2)C1` [Example 404, N-(3-fluorophenyl)-1-(methylsulfonyl)-N-({5-[5-(trifluoromethyl)-1,2,4-oxadiazol-3-yl]pyridin-2-yl}methyl)azetidine-3-carboxamide] are 0.28 µM and 1.3 µM.
As for `O=C(C1CCN(C2CC2)CC1)N(Cc1ccc(-c2noc(C(F)(F)F)n2)cn1)c1cccc(F)c1` [Example 406, 1-cyclopropyl-N-(3-fluorophenyl)-N-({5-[5-(trifluoromethyl)-1,2,4-oxadiazol-3-yl]pyridin-2-yl}methyl)piperidine-4-carboxamide], the IC50 on HDAC1 is 0.27 µM; on HDAC8, 1.8 µM.
With `FC(F)(F)c1nc(-c2ccc(CNc3ccc4c[nH]nc4c3)cc2)no1` [Example 411, N-{4-[5-(trifluoromethyl)-1,2,4-oxadiazol-3-yl]benzyl}-2H-indazol-6-amine], the IC50 on HDAC1 came to 1 µM; at HDAC8, 2.2 µM.
For `FC(F)(F)c1nc(-c2ccc(CNc3cccc4[nH]ncc34)cc2)no1` [Example 415, N-{4-[5-(trifluoromethyl)-1,2,4-oxadiazol-3-yl]benzyl}-1H-indazol-4-amine], the IC50 on HDAC1 amounted to 1.6 µM; on HDAC8 it was 2.5 µM.
Consider `FC(F)(F)c1nc(-c2ccc(CNc3cnccn3)cc2)no1` [Example 417, N-{4-[5-(trifluoromethyl)-1,2,4-oxadiazol-3-yl]benzyl}pyrazin-2-amine], for which the results for the IC50 at HDAC1 and at HDAC8 were 2.6 µM and 1.9 µM, respectively.
Consider `OCc1ccnc(NCc2ccc(-c3noc(C(F)(F)F)n3)cc2)n1` [Example 418, [2-({4-[5-(trifluoromethyl)-1,2,4-oxadiazol-3-yl]benzyl}amino)pyrimidin-4-yl]methanol], for which the results for the IC50 on HDAC1 and at HDAC8 were 3.6 µM and 3.2 µM, respectively.
Turning to `FC(F)(F)c1nc(-c2ccc(CNc3cncnc3)cc2)no1` [Example 419, N-{4-[5-(trifluoromethyl)-1,2,4-oxadiazol-3-yl]benzyl}pyrimidin-5-amine], the figures for the IC50 at HDAC1 and on HDAC8 were 2.6 µM and 1.9 µM, respectively.
The corresponding values for `COCc1cc(=O)n(Cc2ccc(-c3noc(C(F)(F)F)n3)cn2)c2ccccc12` [Example 420, 4-(methoxymethyl)-1-({5-[5-(trifluoromethyl)-1,2,4-oxadiazol-3-yl]pyridin-2-yl}methyl)quinolin-2(1H)-one] are 0.11 µM and 1 µM.
As to `FC(F)(F)c1nc(-c2ccnc(OC[C@@H]3C[C@@H]3c3ncccn3)c2)no1` [Example 424, 2-{(1S,2R)-2-[({4-[5-(trifluoromethyl)-1,2,4-oxadiazol-3-yl]pyridin-2-yl}oxy)methyl]cyclopropyl}pyrimidine], the results for the IC50 on HDAC1 and at HDAC8 were 2.6 µM and 0.32 µM, respectively.

(Values after patent publication US11066396B2 (priority 2016, dated 2021).)
